Patent publication US20160310445A1, “PREVENTION AND COUNTERACTION OF DIET-INDUCED THROMBOSIS RISK” (VITAK BV, priority 2013, published 2016)

What was measured:
[1] = system: uncarboxylated osteocalcin relative to total osteocalcin; experiment: Vitamin K status by ucOC/tOC ratio in renal transplant recipients treated with menaquinone-7 (Experiment 5); format: in vivo, renal transplant recipients (human)
Source text: In yet a further aspect, vitamin K used according to the present invention is to be administered to specific groups of subjects. As already stated supra, mammalian subjects according to the invention are in particular human subjects. Vitamin K may, in the context of the invention, be administered to healthy or apparently healthy human subjects, preferably healthy or apparently healthy adult human subjects, which may benefit from vitamin K supplementation. In particular, these subjects are characterized in that they have a regular vitamin K status and a normal thrombosis risk, particularly a normal venous thrombosis risk. The vitamin K status may e.g. be determined using the ucOC/tOC ratio, i.e. the amount of circulating uncarboxylated osteocalcin (ucOC) relative to the total amount of osteocalcin (tOC). The vitamin K status may also be determined using other methods, e.g. the carboxylation degree of the vascular Gla-protein MGP, but since this assay is not yet commercially available, the ucOC/tOC ratio will be used throughout this document.
In the present study, a group of 32 RTR were randomly subdivided into 4 groups of 8 subjects each and compared with 24 age- and sex-matched healthy volunteers.
The RTR were treated with the following doses of vitamin K2 (menaquinone-7) for 3 months: 0, 90, 180 and 360 μg/day. Blood was taken at baseline and at the end of the study to prepare EDTA plasma and serum. Vitamin K status was assessed by measuring the ucOC/tOC ratio and the thrombosis tendency was estimated from the ETP values.

[2] = system: Endogenous Thrombin Potential (thrombin generation in plasma); experiment: ETP in renal transplant recipients treated with menaquinone-7 (Experiment 5); format: in vivo, renal transplant recipients (human)
Source text: (§1) There are several ways in which thrombosis tendency or increased thrombosis risk may be established, but most of them are based on one of the two following principles: • a) Citrated plasma is collected by venipuncture and clotting is induced by adding tissue factor (thromboplastin) and recalcification. The time required to clot is compared to the clotting time of a reference sample and expressed as International Normalized Ratio (INR). This method is sensitive for monitoring patients during anticoagulation treatment (INR>2.0), but insensitive for INR values<1.0 (increased thrombosis risk). • b) Citrated plasma is collected by venipuncture, defibrinated and the conversion of prothrombin into thrombin is initiated by adding tissue factor and calcium. The total amount of thrombin generated in a certain time period is expressed as Endogenous Thrombin Potential (ETP), whereas also other kinetic characteristics (thrombin peak height, time to peak) provide additional information (E. De Smedt, R. Al Dieri, H. M. Spronk, K. Hamulyak, H. ten Cate, H. C. Hemker: Thromb. Haemost. 2008; 100:343-349).
(§2) The ETP reflects the amount of thrombin that can be formed in a period of time following activation of platelet-poor plasma. The amount of thrombin generated is monitored using a chromogenic substrate for thrombin, and results from three independent principles: the circulating concentration of coagulation factors, the concentration of coagulation inhibitors (proteins C and S) and the concentration of thrombin inhibitors such as antithrombin III. Typical ETP curves show a rapid increase of thrombin formed in the first 6-8 minutes after activation, followed by a decline caused by thrombin inhibitors such as antithrombin III. […] Generally, the ETP is expressed as the area under the curve during the first 30 minutes of thrombin formation. […]
The RTR were treated with the following doses of vitamin K2 (menaquinone-7) for 3 months: 0, 90, 180 and 360 μg/day. […] Vitamin K status was assessed by measuring the ucOC/tOC ratio and the thrombosis tendency was estimated from the ETP values.

[3] = system: Endogenous Thrombin Potential (thrombin generation in plasma); experiment: ETP at baseline and after one year of vitamin K1 by tertile of vitamin K status (Experiment 3); format: in vivo, postmenopausal women; settings: 1 mg/day, group with the highest ucOC/tOC ratio (0.20, n=19), only in this group
Source text: as §1, with “This method is sensitive for monitoring patients during anticoagulation treatment (INR>2.0), but insensitive for INR values<1.0 (increased thrombosis risk). • b) Citrated plasma is collected by venipuncture, defibrinated and the conversion of prothrombin into thrombin is initiated by adding tissue factor and calcium.” left out
as §2, with “III.” for “III. Typical ETP curves show a rapid increase of thrombin formed in the first 6-8 minutes after activation, followed by a decline caused by thrombin inhibitors such as antithrombin III.”

Structure (SMILES)	change of ucOC/tOC ratio with dose ([1]; 0, 90, 180 and 360 μg/day, 3 months, FIG. 5A)	decline of ucOC/tOC ratio compared to baseline ([1]; 180 and 360 μg/day, 3 months)	difference in ucOC/tOC ratio between the 0 μg/day and the 360 μg/day intake groups ([1]; t=3 months)	change of ETP with dose ([2]; 0, 90, 180 and 360 μg/day, 3 months, FIG. 5B)	decline of ETP compared to baseline ([2]; 180 and 360 μg/day, 3 months)	difference in ETP between the 0 μg/day and the 360 μg/day intake groups ([2]; t=3 months)	change of ETP after vitamin K supplementation [3]
CC(C)=CCC/C(C)=C/CC/C(C)=C/CC/C(C)=C/CC/C(C)=C/CC/C(C)=C/CC/C(C)=C/CC1=C(C)C(=O)c2ccccc2C1=O [menaquinone-7]	decreased in a dose-dependent way	statistically significant	significant	decreased at increasing doses	statistically significant	significant	
CC1=C(C/C=C(\C)CCC[C@H](C)CCC[C@H](C)CCCC(C)C)C(=O)c2ccccc2C1=O [vitamin K1, phylloquinone]							declined significantly
